Our source for the IC50 and inhibition values is US11535611B2, “Pyrazolo[3,4-B]pyridines and imidazo[1,5-B]pyridazines as PDE1 inhibitors” (H. Lundbeck A/S, priority 2017, dated 2022).

Type in all cases: biochemical
The target of one test is PDE1A (Homo sapiens (Human), UniProt P54750). In words: PDE1 inhibition assay, PDE1A. The conditions noted are these: for IC50: 15 nM tritium labelled cAMP, 1 hr at room temperature, SPA beads. An outline of the steps:
(§1)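 Scintillation proximity read-out (yttrium silicate beads, 1 h settling) quantified hydrolysis of 15 nM tritiated cAMP after a 1 h room-temperature reaction. The buffer was HEPES pH 7.6 with MgCl2, Tween20 and BSA, and enzyme was set to convert 20–25% of substrate. Activity was normalized to the uninhibited control (100%) to derive IC50.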

The target of the next test is PDE1C (Homo sapiens (Human), UniProt Q14123). The test is described as follows: PDE1 inhibition assay, PDE1C. The conditions noted are these: for IC50: 15 nM tritium labelled cAMP, 1 hr at room temperature, SPA beads, read-out: PDE1 C, IC50. The method in brief:
as §1

For another test, the target named is PDE1B (Homo sapiens (Human), UniProt Q01064). The test is described as follows: PDE1 inhibition assay, PDE1B. The conditions noted are these: 15 nM tritium labelled cAMP, 1 hr at room temperature, SPA beads; read-out: PDE1 B, IC50. An outline of the steps: as §1
Sequence of PDE1B (Q01064 whole entry): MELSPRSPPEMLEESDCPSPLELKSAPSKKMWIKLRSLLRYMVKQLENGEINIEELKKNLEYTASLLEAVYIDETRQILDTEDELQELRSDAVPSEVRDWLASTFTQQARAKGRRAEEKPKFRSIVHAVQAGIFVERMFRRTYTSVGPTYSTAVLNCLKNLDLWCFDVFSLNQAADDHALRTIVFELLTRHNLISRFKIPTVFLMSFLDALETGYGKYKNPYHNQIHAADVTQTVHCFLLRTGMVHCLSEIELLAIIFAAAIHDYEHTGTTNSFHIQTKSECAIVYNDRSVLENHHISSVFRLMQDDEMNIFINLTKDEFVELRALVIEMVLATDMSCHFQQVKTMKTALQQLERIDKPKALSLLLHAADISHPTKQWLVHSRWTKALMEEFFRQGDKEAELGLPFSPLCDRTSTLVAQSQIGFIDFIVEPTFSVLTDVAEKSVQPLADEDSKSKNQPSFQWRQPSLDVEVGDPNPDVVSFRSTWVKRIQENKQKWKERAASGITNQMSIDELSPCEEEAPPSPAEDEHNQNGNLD

As usually defined, the IC50 is the concentration that gives 50% inhibition. As usually defined, the inhibition is the percentage by which the read-out fell short of the control.

Sequence of PDE1C (Q14123 whole entry): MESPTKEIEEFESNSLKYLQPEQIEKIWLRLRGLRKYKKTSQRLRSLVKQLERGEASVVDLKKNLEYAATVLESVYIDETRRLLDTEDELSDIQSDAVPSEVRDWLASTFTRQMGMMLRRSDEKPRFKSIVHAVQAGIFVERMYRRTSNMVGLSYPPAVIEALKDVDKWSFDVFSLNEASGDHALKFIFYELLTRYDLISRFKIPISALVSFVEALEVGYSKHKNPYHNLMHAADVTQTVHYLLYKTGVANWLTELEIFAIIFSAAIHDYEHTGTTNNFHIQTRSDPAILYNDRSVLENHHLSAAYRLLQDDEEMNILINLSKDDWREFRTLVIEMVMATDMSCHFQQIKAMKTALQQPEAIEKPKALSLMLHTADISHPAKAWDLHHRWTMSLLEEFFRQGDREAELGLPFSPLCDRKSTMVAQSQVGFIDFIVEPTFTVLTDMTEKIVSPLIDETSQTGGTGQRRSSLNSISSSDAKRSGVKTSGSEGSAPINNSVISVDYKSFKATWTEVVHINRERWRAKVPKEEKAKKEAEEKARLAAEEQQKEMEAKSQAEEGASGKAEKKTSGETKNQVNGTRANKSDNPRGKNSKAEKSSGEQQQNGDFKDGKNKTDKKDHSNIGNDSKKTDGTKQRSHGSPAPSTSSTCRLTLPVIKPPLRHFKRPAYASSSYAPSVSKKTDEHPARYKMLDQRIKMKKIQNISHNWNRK
Sequence of PDE1A (P54750 whole entry): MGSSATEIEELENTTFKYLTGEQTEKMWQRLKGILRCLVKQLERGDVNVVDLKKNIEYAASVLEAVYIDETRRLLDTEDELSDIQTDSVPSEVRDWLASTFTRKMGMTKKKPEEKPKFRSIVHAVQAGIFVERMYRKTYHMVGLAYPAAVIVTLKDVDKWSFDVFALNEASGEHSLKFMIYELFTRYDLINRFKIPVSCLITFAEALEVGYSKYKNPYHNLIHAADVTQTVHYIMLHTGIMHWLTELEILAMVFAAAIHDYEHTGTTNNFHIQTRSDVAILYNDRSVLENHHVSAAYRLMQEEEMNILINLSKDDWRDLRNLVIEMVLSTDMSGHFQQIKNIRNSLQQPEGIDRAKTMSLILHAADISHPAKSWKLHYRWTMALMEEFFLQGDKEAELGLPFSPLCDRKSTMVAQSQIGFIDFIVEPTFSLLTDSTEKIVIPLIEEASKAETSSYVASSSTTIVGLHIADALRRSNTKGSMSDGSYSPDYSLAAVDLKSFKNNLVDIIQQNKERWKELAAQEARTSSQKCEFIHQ

`CC(C)n1ncc2nc(-c3cccc4c3OCO4)cc(N[C@@H]3CCOC3)c21` [Example 32, 5-(1,3-benzodioxol-4-yl)-1-isopropyl-N-[(3R)-tetrahydrofuran-3-yl]pyrazolo[4,3-b]pyridin-7-amine]: the IC50 on PDE1A was found to be 1290 nM; on PDE1C, 1200 nM; at PDE1B, 284 nM.
Taken in the same sequence, the figures for `CCOc1ncccc1-c1cc(NCC2CCC(=O)N2C)c2c(n1)c(C)nn2C(C)C` (racemic) [Example 67, (±)-5-[[[5-(2-ethoxy-3-pyridyl)-1-isopropyl-3-methyl-pyrazolo[4,3-b]pyridin-7-yl]amino]methyl]-1-methyl-pyrrolidin-2-one] were 70 nM, 106 nM and 11 nM.
Regarding `CCOc1ncccc1-c1cc(N2CCCC2)c2c(cnn2C2CCOC2)n1` (racemic) [Example 3, (±)-5-(2-ethoxy-3-pyridyl)-7-pyrrolidin-1-yl-1-tetrahydrofuran-3-yl-pyrazolo[4,3-b]pyridine], the inhibition at 1 µM was 27% at PDE1A (@ 1 μM compound) and 29% at PDE1C (@ 1 μM compound, read-out: PDE1 C, % inhibition @ 1 μM). On PDE1B, the IC50 came to 550 nM.
Take `CCOc1ncccc1-c1ccn2c(C(C)CC)nc(C)c2n1` (racemic) [Example 76, (±)-2-(2-ethoxy-3-pyridyl)-8-methyl-6-sec-butyl-imidazo[1,5-a]pyrimidine]: the IC50 against PDE1A was determined as 61 nM; at PDE1C it was 112 nM; on PDE1B, 9 nM.
As for `CCOc1ncccc1-c1ccn2c(C3CCOC3)nc(C)c2n1` (racemic) [Example 81, (±)-2-(2-ethoxy-3-pyridyl)-8-methyl-6-tetrahydrofuran-3-yl-imidazo[1,5-a]pyrimidine], the IC50 was 1130 nM at PDE1A, 1630 nM at PDE1C and 145 nM at PDE1B.
Taken in the same sequence, the figures for `COc1ccc(Cc2cc(N[C@@H]3CCOC3)c3c(cnn3C(C)C)n2)cc1` [Example 57, 1-isopropyl-5-[(4-methoxyphenyl)methyl]-N-[(3R)-tetrahydrofuran-3-yl]pyrazolo[4,3-b]pyridin-7-amine] were 874 nM, 506 nM and 303 nM.
Taken in the same sequence, the figures for `CCOc1ncccc1-c1ccn2c(C3CCC3)nc(C)c2n1` [Example 73, 6-cyclobutyl-2-(2-ethoxy-3-pyridyl)-8-methyl-imidazo[1,5-a]pyrimidine] were 1550 nM, 2090 nM and 296 nM.
